The test concerns the target T1, rhGBA1 (imiglucerase) (Homo sapiens, UniProt P04062, R534H).
T1 construct: purchased Sanofi Genzyme (gift) Cerezyme®
T1 sequence (P04062 40-536 R534H): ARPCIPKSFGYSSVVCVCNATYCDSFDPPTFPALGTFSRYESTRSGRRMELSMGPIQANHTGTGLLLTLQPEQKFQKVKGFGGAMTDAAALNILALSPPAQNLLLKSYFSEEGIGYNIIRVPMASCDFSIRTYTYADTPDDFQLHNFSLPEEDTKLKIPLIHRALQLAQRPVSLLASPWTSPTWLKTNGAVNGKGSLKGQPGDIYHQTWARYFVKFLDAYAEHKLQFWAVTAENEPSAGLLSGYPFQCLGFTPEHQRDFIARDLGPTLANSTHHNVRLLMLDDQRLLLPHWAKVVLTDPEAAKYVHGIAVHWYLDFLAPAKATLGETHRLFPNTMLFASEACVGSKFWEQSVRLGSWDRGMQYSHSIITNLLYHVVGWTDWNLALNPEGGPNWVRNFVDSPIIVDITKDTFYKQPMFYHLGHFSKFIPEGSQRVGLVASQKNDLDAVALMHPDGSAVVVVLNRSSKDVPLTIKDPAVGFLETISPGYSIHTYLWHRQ
The test is described as follows: 4MU fluorogenic substrate assay for apparent IC50, rhGBA1. In kind it is biochemical. Conditions: 30 min pre-incubation, 4MU-β-D-Glc. An excerpt:
To identify an ABP that selectively labels human GBA2 over GBA1 and GBA3, a library of cyclophellitol-based ABPs with varying configurations (ESI Fig. S1 ^†) was screened for their selectivity towards human retaining β-glucosidases. For this purpose, we initially assessed the inhibition properties of the compounds using recombinant human GBA1 (rhGBA1, imiglucerase), lysates of cells overexpressing GBA2 or GBA3 (both in combination with knockout of the other retaining β-glucosidases). In a preliminary screen, enzymes were pre-incubated for 30 min with the tested compounds, followed by the addition of the fluorogenic substrate, 4MU-β-D-Glc, and subsequent quantification of released fluorescent 4MU after 30 minutes. This screening brought our attention to a new set of β-D-Araf cyclitol aziridines as potential GBA2 inhibitors. […] On the other hand, the biotin-tagged β-D-Araf compound 6 is a poor inhibitor of all three glucosidases (apparent IC50 > 8 μM). Arabinofuranosyl cyclitol 12–20 with various configurations (α-L-Araf and β-L-Araf) were also evaluated (ESI Fig. S1 ^†).
Recombinant human GBA1 (rhGBA1, Imiglucerase) was kindly provided by Sanofi Genzyme (Cambridge, MA, USA). 4-Methylumbelliferyl-β-D-glucopyranoside substrates were purchase from Glycosynth (Warrington Cheshire, UK). Protein concentration was measured using the Pierce BCA assay kit (Thermo Fisher Scientific, Waltham, MA, USA). Harvested cells (cell pellets), cell lysates and tissue homogenates not used directly were stored at -80 °C. […]
2.5 4MU fluorogenic substrate assay for apparent IC50 determination
4MU fluorogenic substrate assays (using recombination human rhGBA1 or lysates of HEK293T cells) were conducted in 96-well plates at 37 °C. Samples were diluted with McIlvaine buffer (150 mM citric acid-Na2HPO4) to a final volume of 25 μL, at the appropriate pH for each enzyme. Assays were performed by incubating the samples with 100 μL 4-methylumbelliferyl-β-D-glucopyranoside substrate diluted in McIlvaine buffer for a period of 30 min. Enzyme activities and apparent IC50 values were determined by subtraction of the background (measured for incubations without enzyme) as previously described.4 The substrate mixtures used for each enzyme were as follows:
GBA1: 3.75 mM 4-MU-β-D-glucopyranoside in McIlvaine buffer (150 mM, pH 5.2, supplemented with 0.2% (w/v) sodium taurocholate, 0.1% (v/v) Triton X-100, 0.1% (w/v) bovine serum albumin (BSA)); GBA2: 3.75 mM 4 MU-β-D-glucopyranoside in McIlvaine buffer (150 mM, pH 5.8); GBA3: 3.75 mM 4-MU-β-D-glucopyranoside in McIlvaine buffer (150 mM, pH 6.0). To determine apparent IC50: For GBA1, 3.16 ng (53 fmol) of rhGBA1 (recombinant human GBA1, Imiglucerase) was prepared in 12.5 μL McIlvaine buffer (150 mM, pH 5.2, supplemented with 0.1% (v/v) Triton X-100, 0.2% (w/v) sodium taurocholate, and 0.1% (w/v) bovine serum albumin (BSA)). The enzyme was incubated with 12.5 μL […]
of inhibitors diluted in McIlvaine buffer (150 mM, pH 5.2) at 37 °C for 30 min or 3 h. For GBA2, lysates of GBA1/GBA2 KO HEK293T cells with GBA2 overexpression were prepared in 12.5 μL McIlvaine buffer (150 mM, pH 5.8), and incubated with 12.5 μL of inhibitors diluted in McIlvaine buffer (150 mM, pH 5.8) at 37 °C for 30 min or 3 h. For GBA3, lysates of GBA1/GBA2 KO HEK293T cells with GBA3 overexpression were prepared in 12.5 μL McIlvaine buffer (150 mM, pH 6.0), and incubated with 12.5 μL of inhibitors diluted in McIlvaine buffer (150 mM, pH 6.0) at 37 °C for 30 min or 3 h. Subsequently, the samples were incubated with 100 μL 4-methylumbelliferyl-β-D-glucopyranoside substrates dissolved in McIlvaine buffer described above for a period of 30 min. After stopping the enzyme reaction with 200 μL 1 M NaOH-glycine (pH 10.3), 4-methylumbelliferone fluorescence was measured with a fluorimeter LS55 (Perkin Elmer, Waltham, MA, USA) with λEX 366 nm and λEM 445 nm. The IC50 value was calculated using Graphpad Prism 9.0 with the Nonlinear regression (curve fit) - […]

Where [1] appears, read: imiglucerase (Cerezyme), pH 5.2, n = 3 for β-D-Araf, n = 1 for α-L-Araf and β-L-Araf, read-out: Apparent IC50 rhGBA1.

Values joined by “and” are separate entries in the source; they are usually repeats but may differ in a detail not shown here. Identical values can stand only once. Like-named read-outs stand apart in the source and are kept apart here.

A word on the IC50: it is the concentration at which inhibition is half-maximal. In the case of `CC1=CC(C)=[N+]2C1=C(CCCCc1cn(CCCCCCCCN3[C@@H]4[C@H](CO)[C@@H](O)[C@H](O)[C@@H]43)nn1)c1c(C)cc(C)n1[B-]2(F)F` (some centres unmarked) [ABP 3], the IC50 under setting [1] is 4290 ± 157 nM.
On the same count and under the same terms, under `COc1ccc(C2=[N+]3C(=C(CCCCc4cn(CCCCCCCCN5[C@@H]6[C@H](CO)[C@@H](O)[C@H](O)[C@@H]65)nn4)c4ccc(-c5ccc(OC)cc5)n4[B-]3(F)F)C=C2)cc1` (some centres unmarked) [ABP 4] stands 1780 ± 71 nM; under `CN1/C(=C/C=C/C=C/C2=[N+](CCCCCC(=O)NCc3cn(CCCCCCCCN4[C@@H]5[C@H](CO)[C@@H](O)[C@H](O)[C@@H]54)nn3)c3ccccc3C2(C)C)C(C)(C)c2ccccc21` (some centres unmarked) [ABP 5], 250 to 300 nM and 295 nM.
Consider `O=C(CCCC[C@@H]1SC[C@@H]2NC(=O)N[C@@H]21)NCc1cn(CCCCCCCCN2[C@@H]3[C@H](CO)[C@@H](O)[C@H](O)[C@@H]32)nn1` (some centres unmarked) [ABP 6], for which the IC50 reads like this: (read-out: Apparent IC50 GBA1) above 8000 nM; under setting [1], 10700 ± 786 nM.
Consider `OC[C@@H]1[C@@H](O)[C@H](O)[C@@H]2N[C@H]12` [Compound 1, β-D-Arabinofuranosyl cyclitol aziridine], for which the IC50 is, setting by setting: (read-out: Apparent IC50 GBA1) above 50000 nM; under setting [1], above 50000 nM.
On to `[N-]=[N+]=NCCCCCCCCN1[C@@H]2[C@H](CO)[C@@H](O)[C@H](O)[C@@H]21` (stereo partly drawn) [Compound 2, β-D-arabinofuranosyl cyclitol aziridine-azidooctyl], for which the IC50 under setting [1] stood at 2730 nM.

The record behind these values is publication PMC11375437, “Selective labelling of GBA2 in cells with fluorescent β-D-arabinofuranosyl cyclitol aziridines” (Chemical Science, 2024).
